Measurements: ChEMBL document CHEMBL3046361, “Coumarin: a potential nucleus for anti-inflammatory molecules” (Med Chem Res, 2013)
One block for each molecule: values may come before it.

Tests used:
[1] = tested on: Rattus norvegicus; experiment: Anti-inflammatory activity in Rattus norvegicus (rat) assessed as inhibition of carrageenan-induced paw edema relative to control; type: functional
[2] = tested on: PBMC; experiment: Anti-inflammatory activity in Homo sapiens (human) PBMC assessed as inhibition of LPS-induced TNFalpha production; type: functional, cell-based
[3] = tested on: Rattus norvegicus; experiment: Anti-inflammatory activity in Rattus norvegicus (rat) assessed as inhibition of carrageenan-induced paw edema at […] relative to control; type: functional
[4] = tested on: Rattus norvegicus; experiment: Anti-inflammatory activity in Rattus norvegicus (rat) assessed as inhibition of carrageenan-induced paw edema at 100 mg/kg, po relative to control; type: functional
[5] = molecular target: Prostaglandin G/H synthase 1 (Homo sapiens) (UniProt P23219); experiment: Inhibition of COX1 (unknown origin); conditions: concentration not given here
Sequence of Prostaglandin G/H synthase 1 (Homo sapiens) (P23219 whole entry): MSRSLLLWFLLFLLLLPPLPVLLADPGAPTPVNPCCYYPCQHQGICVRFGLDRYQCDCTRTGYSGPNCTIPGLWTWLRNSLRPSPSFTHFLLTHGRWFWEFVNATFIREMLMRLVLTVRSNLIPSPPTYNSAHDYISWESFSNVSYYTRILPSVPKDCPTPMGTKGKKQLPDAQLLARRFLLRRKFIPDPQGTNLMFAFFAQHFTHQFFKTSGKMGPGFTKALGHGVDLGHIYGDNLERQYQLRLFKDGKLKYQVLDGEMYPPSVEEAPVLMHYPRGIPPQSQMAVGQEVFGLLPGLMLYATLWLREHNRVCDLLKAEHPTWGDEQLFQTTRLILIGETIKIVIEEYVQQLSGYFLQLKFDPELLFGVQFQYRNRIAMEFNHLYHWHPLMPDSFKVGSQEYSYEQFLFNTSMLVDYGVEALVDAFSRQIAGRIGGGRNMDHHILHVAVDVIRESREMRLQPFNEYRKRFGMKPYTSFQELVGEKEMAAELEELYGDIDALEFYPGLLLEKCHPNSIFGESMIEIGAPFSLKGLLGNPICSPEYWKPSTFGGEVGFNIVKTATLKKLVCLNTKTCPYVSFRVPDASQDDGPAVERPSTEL

[6] = tested on: Rattus norvegicus; experiment: Anti-inflammatory activity in albino Rattus norvegicus (rat) assessed as inhibition of carrageenan-induced paw edema at 10 mg/kg, po administered 30 min prior to carrageenan-challenge measured after 5 hr relative to control; type: functional
[7] = tested on: Rattus norvegicus; experiment: Anti-inflammatory activity in albino Rattus norvegicus (rat) assessed as inhibition of carrageenan-induced paw edema at 10 mg/kg, po administered 1 hr prior to carrageenan-challenge measured after 3 hr relative to control; type: functional
[8] = molecular target: T1, Seed linoleate 13S-lipoxygenase-1 (Glycine max) (UniProt P08170); experiment: Inhibition of Glycine max (soybean) lipooxygenase
T1 sequence (whole entry): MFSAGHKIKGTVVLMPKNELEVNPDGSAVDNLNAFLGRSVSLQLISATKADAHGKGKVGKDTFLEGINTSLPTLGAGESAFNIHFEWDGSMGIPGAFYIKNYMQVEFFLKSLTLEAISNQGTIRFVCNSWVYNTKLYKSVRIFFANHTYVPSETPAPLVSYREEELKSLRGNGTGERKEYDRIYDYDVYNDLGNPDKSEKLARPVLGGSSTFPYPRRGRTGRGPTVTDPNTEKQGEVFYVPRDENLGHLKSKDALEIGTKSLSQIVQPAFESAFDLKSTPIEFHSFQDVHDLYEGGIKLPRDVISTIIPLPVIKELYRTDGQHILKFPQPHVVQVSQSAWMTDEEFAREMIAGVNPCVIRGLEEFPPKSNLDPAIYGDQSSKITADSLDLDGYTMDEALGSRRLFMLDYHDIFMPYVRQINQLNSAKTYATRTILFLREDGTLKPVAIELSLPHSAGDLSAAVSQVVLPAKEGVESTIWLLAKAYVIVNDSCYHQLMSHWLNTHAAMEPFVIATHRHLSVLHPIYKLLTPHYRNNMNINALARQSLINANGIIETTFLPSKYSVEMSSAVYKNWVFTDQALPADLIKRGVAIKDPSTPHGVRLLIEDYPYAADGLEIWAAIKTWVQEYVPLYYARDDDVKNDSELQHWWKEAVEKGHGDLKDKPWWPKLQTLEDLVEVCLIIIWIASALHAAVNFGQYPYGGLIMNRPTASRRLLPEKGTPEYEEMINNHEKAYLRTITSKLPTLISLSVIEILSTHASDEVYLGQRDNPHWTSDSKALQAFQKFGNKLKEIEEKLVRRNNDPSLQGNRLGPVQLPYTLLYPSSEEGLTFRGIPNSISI

[9] = tested on: Rattus norvegicus; experiment: Anti-inflammatory activity in Rattus norvegicus (rat) assessed as inhibition of carrageenan-induced paw edema at 0.1 mmoles/kg relative to control; type: functional; conditions: read-out: INH
[10] = tested on: Rattus norvegicus; experiment: Anti-inflammatory activity in albino Rattus norvegicus (rat) assessed as inhibition of carrageenan-induced paw edema at 100 mg/kg, po administered 30 min prior to carrageenan-challenge measured after 5 hr relative to control; type: functional

SMILES: O=C(O)c1ccccc1NC(=O)c1cc2cc(Cl)ccc2oc1=O
inhibition (INH) [1]: 54%

SMILES: CO/N=C/c1ccc2ccc(=O)oc2c1
inhibition (INH) [1]: 54%

SMILES: CCN(CC)C(=O)Oc1ccc2c(C)c(Cc3ccc(F)cc3)c(=O)oc2c1
IC50 [2]: 2.4 µM

SMILES: CN(C)N/C(=N/O)c1cc(=O)oc2ccccc12
inhibition (INH) [1]: >80%

SMILES: COc1ccc(-c2cc(-c3c(OC)ccc4c(C)cc(=O)oc34)no2)cc1
inhibition (INH) [3]: 72%

SMILES: O=c1oc2ccccc2cc1/N=C/c1ccc(Cl)c(Cl)c1
inhibition in vivo at 100 mg/kg [4]: 60%

inhibition [5]: 78.6%
SMILES: O=c1ccc2ccc(/C=N/O)cc2o1

SMILES: COc1ccc2c(c1)c(CC(=O)O)c(C)n2C(=O)c1ccc(Cl)cc1 [INDOMETHACIN]
inhibition in vivo at 10 mg/kg [6]: 71%
inhibition in vivo at 10 mg/kg [7]: 56.5%

inhibition [8]: 92.4%
SMILES: Cc1cc(=O)oc2cc(NCCN(CCN)CCN)ccc12

SMILES: N/C(=N/C(=O)Oc1ccccc1)c1cc(=O)oc2ccccc12
inhibition (INH) [1]: >80%

SMILES: O=c1oc2ccccc2cc1/N=C/c1ccc(Cl)cc1
inhibition in vivo at 100 mg/kg [4]: 75%

inhibition [5]: 39%
SMILES: Cc1c/c(=N\c2ccc([N+](=O)[O-])cc2)oc2cc(O)ccc12

SMILES: CCCC(=O)N/N=C/c1coc2ccccc2c1=O
inhibition (INH) [1]: 80.78%

SMILES: CN/N=C/c1ccc2ccc(=O)oc2c1
inhibition (INH) [1]: 54%

inhibition [8]: 76%
SMILES: COC(=O)/N=C(/N)c1cc(=O)oc2ccccc12

SMILES: COc1ccc2c(C3=NOSN3c3ccccc3)cc(=O)oc2c1
inhibition in vivo at 10 mg/kg [7]: 55.3%

inhibition [8]: 100%
SMILES: CCOC(=O)c1cc(=O)oc2c3c(c4ccccc4c12)OC(C)(C)[C@@H](O)[C@H]3OC(=O)c1cccc(Cl)c1
inhibition in vivo at 100 µmol/kg [9]: 59%

inhibition [8]: 100%
SMILES: CCOC(=O)c1cc(=O)oc2c3c(c4ccccc4c12)OC(C)(C)[C@@H](O)[C@H]3O
inhibition in vivo at 100 µmol/kg [9]: 59%

inhibition [8]: 77%
SMILES: CC1=NC(c2cc(=O)oc3ccccc23)NO1 (stereo unspecified)

SMILES: CC(=O)N1N=C(c2cc3cc(Br)ccc3oc2=O)CC1c1ccc([N+](=O)[O-])cc1 (stereo unspecified)
inhibition in vivo at 100 mg/kg [10]: 66.5%

SMILES: CN(C)C(=O)Oc1cc2oc(=O)c(-c3cccnc3)cc2cc1Cl
IC50 [2]: 0.45 µM

SMILES: COc1ccc2c(C)cc(=O)oc2c1-c1cc(-c2ccc(Cl)cc2)on1
inhibition (INH) [3]: 68%

SMILES: CCNC(=O)Nc1ccc(-c2cc3ccc(OC(=O)N(CC)CC)cc3oc2=O)cc1
IC50 [2]: 0.32 µM
